Experiments:
5αR = conditions: cited from earlier work
castrated BPH model mice = assay: Castrated benign prostatic hyperplasia (BPH) mouse model; type: in vivo; conditions: for testosterone-induced increase in seminal gland weight / testosterone-induced increase in ventral prostate size, length and width: 0.08% Fin, 1% TBE or 2% EA in drinking water, testosterone i.p. daily
5α-reductase (5αR) = biological target: T1, 5α-reductase (5αR) (Rattus norvegicus, UniProt P24008); assay: 5αR activity assay (S9 rat liver homogenate, residual testosterone by HPLC); type: biochemical; conditions: cell-free system
T1 sequence (P24008 1-259): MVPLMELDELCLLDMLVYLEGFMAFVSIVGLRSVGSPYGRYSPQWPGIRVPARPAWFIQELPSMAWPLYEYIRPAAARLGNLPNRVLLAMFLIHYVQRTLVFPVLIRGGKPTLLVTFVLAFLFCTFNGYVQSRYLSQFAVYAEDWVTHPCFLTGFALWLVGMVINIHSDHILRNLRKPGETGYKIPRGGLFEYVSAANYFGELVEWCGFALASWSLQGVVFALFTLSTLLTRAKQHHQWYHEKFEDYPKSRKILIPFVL

[1] = qPCR, prostate and seminal glands

1,2,3,6- or 1,2,4,6-tetra-O-galloyl-D-glucose [TGG]
inhibition of 5αR (5αR): inhibit 5αR

O=c1oc2c(O)c(O)cc3c(=O)oc4c(O)c(O)cc1c4c23 [EA, ellagic acid]
testosterone-induced increase in seminal gland weight (castrated BPH model mice): negligible effects
testosterone-induced increase in ventral prostate size, length and width (castrated BPH model mice): negligible effects
inhibition of 5αR activity (5α-reductase (5αR)): weakly inhibited

CC(C)(C)NC(=O)[C@H]1CC[C@H]2[C@@H]3CC[C@H]4NC(=O)C=C[C@]4(C)[C@H]3CC[C@]12C [Fin, finasteride]
testosterone-induced increase in seminal gland weight (castrated BPH model mice): tended to inhibit
testosterone-induced increase in ventral prostate size, length and width (castrated BPH model mice): tended to inhibit
canalization and lumen formation in prostate gland (castrated BPH model mice; Masson's trichrome histology, 0.08% Fin or 1% TBE): suppressed
prostate basal cell proliferation, BrdU+ cells (castrated BPH model mice; immunohistochemistry, 0.08% Fin or 1% TBE): inhibited cell proliferation
PSA (Klkb1) expression (castrated BPH model mice; [1]): suppressed
TMPRSS2 expression (castrated BPH model mice; [1]): suppressed

O=C(O)c1cc(O)c(O)c(O)c1 [GA, gallic acid]
5αR inhibitory effects (5αR): does not exert 5αR inhibitory effects

O=C(O[C@@H]1O[C@@H]2COC(=O)c3cc(O)c(O)c(O)c3-c3c(cc(O)c(O)c3O)C(=O)O[C@H]2[C@H](OC(=O)c2cc(O)c(O)c(O)c2)[C@H]1OC(=O)c1cc(O)c(O)c(O)c1)c1cc(O)c(O)c(O)c1 [eugeniin]
inhibition of 5αR (5αR): inhibit 5αR

Source: PMC10380868, “Trapa bispinosa Roxb. Pericarp Extract Exerts 5α-Reductase Inhibitory Activity in Castrated Benign Prostatic Hyperplasia Model Mice” (International Journal of Molecular Sciences, 2023)
